Patent publication US20220340764A1, “HYDROPHOBIC AND OLEOPHOBIC SURFACES AND USES THEREOF” (Technion Research & Development Foundation Limited, priority 2012, published 2022)

Columns and labels:
[1] = test system: B. cereus 407 biofilms; assay: Biofilm formation on wax-coated glass substrates, LIVE/DEAD staining, CLSM; type: cell-based, Bacillus cereus; settings: glass substrate with thermally evaporated wax, in comparison to control glass surface; FIGS. 7A-7E
Procedure: Bacillus cereus 407 and ATCC 10987 stains were obtained from Michel Gohar's lab collection (INRA, France).
(§1) For biofilm generation, bacteria were grown to stationary phase in LB (Lysogeny broth) medium at 37° C. in shaking culture. The generated cultures were seeded (by dilution 1:100) into sterile polystyrene multidishes containing different substrates and inoculated into fresh media (37° C., 5 95% air/5% CO2 (v/v) statically without agitation.
(§2) To visualize the constructed biofilms, the substrates were removed from the wells, washed with PBS buffer and stained with FilmTracer™ LIVE/DEAD Biofilm Viability Kit (Molecular Probes, OR) according to the manufacturer's protocol. The stained samples were observed using an Olympus IX81 confocal laser scanning microscope (CLSM, Japan). Live cells were stained green, while dead cells were stained red. Fluorescence emission of the stained samples was measured using an Olympus IX81 CLSM equipped with 488-nm argon-ion and 543-nm helium-neon lasers.
(§3) Two different biofilm forming pathogenic bacteria, B. cereus (Gram positive) and P. aeruginosa (Gram negative), which are often encountered in clinical and industrial settings, were tested for their ability to form biofilm on glass substrates having thermally evaporated thereon the following wax materials: C24F50, C36H74, C40H82 and C44H90.

[2] = Static contact angle (wettability) of wax-coated surfaces, Attension Theta tensiometer; type: physicochemical; parameters: C.A. Cyclohexane / C.A. hexadecane / C.A. Water / C.A. Glycerol / C.A. Ethylene Glycol / C.A. Benzyl Chloride / C.A. Clorobenzene: unit not given here; settings: for C.A. Ethylene Glycol: liquid Ethylene Glycol; for C.A. Glycerol: liquid Glycerol; for C.A. Water: liquid Water; for C.A. Benzyl Chloride: liquid Benzyl Chloride; for C.A. Clorobenzene: liquid Clorobenzene; for C.A. Cyclohexane: liquid Cyclohexane; for C.A. hexadecane: liquid hexadecane
Source text: Typically, but not exclusively, in order to measure the static contact angle, a drop of liquid is formed on the tip of a hypodermic needle attached to a screw syringe. The syringe is fastened to a stand which reduces any irregularities that are produced by manual drop deposition. The substrate is then raised until it touches the drop using the Y control of the stage. The drop is the then brought into the field of view and onto the focal point of the microscope by x-y translation of the stage and image is captured. The static contact angle is calculated by methods known in the art. An exemplary methodology and system for measuring a static contact angle in described in Example s in the Examples section that follows.
The wettability of the surfaces was characterized using water contact angle (C.A.) measurements recorded with an Attension Theta tensiometer. The water wettability measurements were performed with a constant high-purity water drop volume of 7 μL.
Oil contact angles were determined for the following liquids: Glycerol, ethylene glycol, olive oil, benzyl chloride, clorobenzene, cyclohexane and hexadecane, using an Attension Theta tensiometer with approximately 8 μL liquid drops.
Time-dependent contact angle measurements were performed during a period of two weeks.
(§4) Contact angles and RMS roughness were measured as described in Example 2 hereinabove.

[3] = RMS roughness of wax-coated surfaces by confocal microscopy; type: physicochemical; settings: for Roughness (RMS): spray coated on Si wafer, 5 seconds×4 cycles, wax solution; for RMS roughness growth: thermally-evaporated on silicon substrate
Procedure: RMS roughness (Rq) is typically calculated according to the following formula: […]
Confocal microscopy (Leica DCM3D) was used for roughness measurements. Time-dependent measurements were performed on counterpart samples having non-fluorinated wax coatings that were used for XRD time-dependent measurements. In situ time-resolved confocal microscopy was used for observation of the change in surface roughness over a constant 100 μm×100 μm area for duration of 160 hours. A topographical image was collected every hour. These experiments encompassed the same duration and time intervals as the time-dependent XRD measurements hereinabove.
Similar time-dependent measurements were performed for samples coated with fluorinated wax, maintained at a temperature of 90° C., during 60 hours. These experiments were supported by time-dependent XRD measurements performed at 90° C. during 60 hours, with 1 hour time intervals.
as §4

[4] = test system: P. aeruginosa biofilm; assay: Biofilm formation on wax-coated glass substrates, LIVE/DEAD staining, CLSM; type: cell-based, Pseudomonas aeruginosa PA14; settings: glass substrate with thermally evaporated wax; FIGS. 8A-E
Procedure: Pseudomonas aeruginosa PA14 was obtained from Shlomo Sela's lab strain collection (Agricultural Research Organization, Israel).
as §1, §2, §3

[5] = spray coated on Si wafer, 5 seconds×4 cycles, wax solution
[6] = thermally-evaporated wax on Silicon substrate
[7] = thermally evaporated on silicon wafer, maintained at 90° C., 18 hr
[8] = thermally evaporated on silicon wafer, maintained at 90° C., 20 hr
[9] = thermally evaporated on silicon wafer, maintained at 90° C., 22 hr
[10] = thermally evaporated on silicon wafer, maintained at 90° C., 30 hr
[11] = thermally evaporated on silicon wafer, maintained at 90° C., 40 hr
[12] = thermally evaporated on silicon wafer, maintained at 90° C., 50 hr
[13] = thermally evaporated on silicon wafer, maintained at 90° C., 60 hr

CCCCCCCCCCCCCCCCCCCCCCCCCCCCCCCCCCCC [C36, hexatriacontane]
B. cereus biofilm formation on coated substrate [1]: Less significant inhibition of biofilm formation | C.A. Ethylene Glycol [2, 5]: 58 | C.A. Glycerol [2, 5]: 64 | C.A. Water [2, 5]: 75 | contact angle of a water drop ([2]; thermally-evaporated on gold surface, maintained at room temperature for a week): 165 ° | C.A. Benzyl Chloride [2, 6]: Fully wetted | C.A. Clorobenzene [2, 6]: Fully wetted | C.A. Cyclohexane [2, 6]: Fully wetted | C.A. Ethylene Glycol [2, 6]: 121 | C.A. Glycerol [2, 6]: 133 | C.A. Water [2, 6]: 171 | C.A. hexadecane [2, 6]: Fully wetted | Roughness (RMS) [3]: 0.07-0.1 μm

FC(F)(F)C(F)(F)C(F)(F)C(F)(F)C(F)(F)C(F)(F)C(F)(F)C(F)(F)C(F)(F)C(F)(F)C(F)(F)C(F)(F)C(F)(F)C(F)(F)C(F)(F)C(F)(F)C(F)(F)C(F)(F)C(F)(F)C(F)(F)C(F)(F)C(F)(F)C(F)(F)C(F)(F)F [C24, perfluorotetracosane]
B. cereus biofilm formation on coated substrate [1]: could not adhere successfully to form confluent biofilms | C.A. Ethylene Glycol [2, 5]: 100 | C.A. Glycerol [2, 5]: 140 | C.A. Water [2, 5]: 141 | C.A. Ethylene Glycol 18 hr [2, 7]: 167 | C.A. Glycerol 18 hr [2, 7]: 163 | C.A. Hexadecane 18 hr [2, 7]: 122 | C.A. Water 18 hr [2, 7]: 160 | C.A. Ethylene Glycol 20 hr [2, 8]: 159 | C.A. Glycerol 20 hr [2, 8]: 164 | C.A. Hexadecane 20 hr [2, 8]: 115 | C.A. Water 20 hr [2, 8]: 165 | C.A. Ethylene Glycol 22 hr [2, 9]: 155 | C.A. Glycerol 22 hr [2, 9]: 165 | C.A. Hexadecane 22 hr [2, 9]: 118 | C.A. Water 22 hr [2, 9]: 161 | C.A. Ethylene Glycol 30 hr [2, 10]: 160 | C.A. Glycerol 30 hr [2, 10]: 167 | C.A. Hexadecane 30 hr [2, 10]: 119 | C.A. Water 30 hr [2, 10]: 168 | C.A. Ethylene Glycol 40 hr [2, 11]: 156 | C.A. Glycerol 40 hr [2, 11]: 167 | C.A. Hexadecane 40 hr [2, 11]: 124 | C.A. Water 40 hr [2, 11]: 168 | C.A. Ethylene Glycol 50 hr [2, 12]: 161 | C.A. Glycerol 50 hr [2, 12]: 163 | C.A. Hexadecane 50 hr [2, 12]: 123 | C.A. Water 50 hr [2, 12]: 163 | C.A. Ethylene Glycol 60 hr [2, 13]: 166 | C.A. Glycerol 60 hr [2, 13]: 166 | C.A. Hexadecane 60 hr [2, 13]: 117 | C.A. Water 60 hr [2, 13]: 167 | time-dependent contact angle of water, glycerol, ethylene glycol and hexadecane ([2]; thermally evaporated on silicon wafer, room temperature, two-week period): slight variation of the measured contact angles | contact angle of olive oil drop ([2]; thermally-evaporated on silicon substrate, FIG. 3A insert): high contact angle | C.A. Benzyl Chloride [2, 6]: 139 | C.A. Clorobenzene [2, 6]: 138 | C.A. Cyclohexane [2, 6]: 112 | C.A. Ethylene Glycol [2, 6]: 171 | C.A. Glycerol [2, 6]: 172 | C.A. Water [2, 6]: 172 | C.A. hexadecane [2, 6]: 112 | P. aeruginosa biofilm formation on coated substrate [4]: substantially prevented the biofilm formation | Roughness (RMS) [3]: 0.12 μm | surface roughness (R.M.S.) ([3]; thermally-evaporated fluorinated wax, at 90° C. after a 60 hour time period): 0.9 μm | surface roughness (R.M.S.), initial ([3]; thermally-evaporated fluorinated wax, before maintaining at 90° C.): 0.7 μm | RMS roughness growth ([3]; 20 hours at 70° C.): about 0.06 μm | RMS roughness growth ([3]; 20 hours at 80° C.): about 0.08 μm | RMS roughness growth ([3]; maintained at 90° C.): about 0.4 μm

CCCCCCCCCCCCCCCCCCCCCCCCCCCCCCCCCCCCCCCCCCCCCCCCCC [C50, pentacontane]
C.A. Benzyl Chloride [2, 6]: Fully wetted | C.A. Clorobenzene [2, 6]: Fully wetted | C.A. Cyclohexane [2, 6]: Fully wetted | C.A. Ethylene Glycol [2, 6]: 100 | C.A. Glycerol [2, 6]: 111 | C.A. Water [2, 6]: 151 | C.A. hexadecane [2, 6]: Fully wetted

CCCCCCCCCCCCCCCCCCCCCCCCCCCCCCCCCCCCCCCCCCCC [C44, tetratetracontane]
B. cereus biofilm formation on coated substrate [1]: could not adhere successfully to form confluent biofilms | C.A. Ethylene Glycol [2, 5]: 60 | C.A. Glycerol [2, 5]: 96 | C.A. Water [2, 5]: 96 | C.A. Benzyl Chloride [2, 6]: Fully wetted | C.A. Clorobenzene [2, 6]: Fully wetted | C.A. Cyclohexane [2, 6]: Fully wetted | C.A. Ethylene Glycol [2, 6]: 103 | C.A. Glycerol [2, 6]: 130 | C.A. Water [2, 6]: 161 | C.A. hexadecane [2, 6]: Fully wetted | P. aeruginosa biofilm formation on coated substrate [4]: substantially prevented the biofilm formation

FC(F)(F)C(F)(F)C(F)(F)C(F)(F)C(F)(F)C(F)(F)C(F)(F)C(F)(F)C(F)(F)C(F)(F)C(F)(F)C(F)(F)C(F)(F)C(F)(F)C(F)(F)C(F)(F)C(F)(F)C(F)(F)C(F)(F)C(F)(F)F [C20, perfluoroeicosane, reference compound]
C.A. Benzyl Chloride [2, 6]: Fully wetted | C.A. Clorobenzene [2, 6]: Fully wetted | C.A. Cyclohexane [2, 6]: Fully wetted | C.A. Ethylene Glycol [2, 6]: 122 | C.A. Glycerol [2, 6]: 120 | C.A. Water [2, 6]: 128 | C.A. hexadecane [2, 6]: Fully wetted

CCCCCCCCCCCCCCCCCCCCCCCCCCCCCCCCCCCCCCCC [C40, tetracontane]
B. cereus biofilm formation on coated substrate [1]: could not adhere successfully to form confluent biofilms | C.A. Ethylene Glycol [2, 5]: 62 | C.A. Glycerol [2, 5]: 69 | C.A. Water [2, 5]: 85 | C.A. Benzyl Chloride [2, 6]: Fully wetted | C.A. Clorobenzene [2, 6]: Fully wetted | C.A. Cyclohexane [2, 6]: Fully wetted | C.A. Ethylene Glycol [2, 6]: 112 | C.A. Glycerol [2, 6]: 144 | C.A. Water [2, 6]: 167 | C.A. hexadecane [2, 6]: Fully wetted | Roughness (RMS) [3]: 0.06-0.09 μm

FC(F)(F)C(F)(F)C(F)(F)C(F)(F)C(F)(F)C(F)(F)C(F)(F)C(F)(F)C(F)(F)C(F)(F)C(F)(F)C(F)(F)C(F)(F)C(F)(F)C(F)(F)F [C15, perfluoropentadecane]
C.A. Ethylene Glycol [2, 5]: 59 | C.A. Glycerol [2, 5]: 110 | C.A. Water [2, 5]: 114 | Roughness (RMS) [3]: 0.12 μm
